In ChEMBL document CHEMBL4346657, “Anticancer activity, dual prooxidant/antioxidant effect and apoptosis induction profile of new bichalcophene-5-carboxamidines” (Eur J Med Chem, 2019):
The source made the active and inactive calls. The calls are words filed in the database; no cut-off is given here.

What was measured:
[1] = system: Panel NCI-60 (60 carcinoma cell lines); assay: Antiproliferative activity against human NCI60 cells assessed as growth inhibition after 48 hrs by sulforhodamine B assay; format: functional
[2] = system: WI-38; assay: Cytotoxicity activity against human WI38 cells assessed as reduction in cell viability measured after 48 hrs by MTT assay; format: cell-based; settings: WI-38, 48 h
[3] = Selectivity index, ratio of IC50 for human WI38 cells to GI50 for human NCI60 cells
[4] = system: MDA-MB-231; assay: Antiproliferative activity against human MDA-MB-231/ATCC cells assessed as growth inhibition after 48 hrs by sulforhodamine B assay; format: functional; settings: MDA-MB-231, 48 h
[5] = system: OVCAR-3; assay: Antiproliferative activity against human OVCAR3 cells assessed as growth inhibition after 48 hrs by sulforhodamine B assay; format: functional; settings: OVCAR-3, 48 h
[6] = system: DU-145; assay: Antiproliferative activity against human DU145 cells assessed as growth inhibition after 48 hrs by sulforhodamine B assay; format: functional; settings: DU-145, 48 h
[7] = system: A498; assay: Antiproliferative activity against human A498 cells assessed as growth inhibition after 48 hrs by sulforhodamine B assay; format: functional; settings: A498, 48 h
[8] = system: NCI/ADR-RES; assay: Antiproliferative activity against human NCI-ADR-RES cells assessed as growth inhibition after 48 hrs by sulforhodamine B assay; format: functional
[9] = system: IGROV-1; assay: Antiproliferative activity against human IGROV1 cells assessed as growth inhibition after 48 hrs by sulforhodamine B assay; format: functional; settings: IGROV-1, 48 h
[10] = system: UACC-62; assay: Antiproliferative activity against human UACC62 cells assessed as growth inhibition after 48 hrs by sulforhodamine B assay; format: functional; settings: UACC-62, 48 h
[11] = system: UACC-257; assay: Antiproliferative activity against human UACC257 cells assessed as growth inhibition after 48 hrs by sulforhodamine B assay; format: functional; settings: UACC-257, 48 h
[12] = system: MDA-MB-435; assay: Antiproliferative activity against human MDA-MB-435 cells assessed as growth inhibition after 48 hrs by sulforhodamine B assay; format: functional; settings: MDA-MB-435, 48 h
[13] = system: Malme-3M; assay: Antiproliferative activity against human MALME-3M cells assessed as growth inhibition after 48 hrs by sulforhodamine B assay; format: functional
[14] = system: LOX IMVI; assay: Antiproliferative activity against human LOXIMVI cells assessed as growth inhibition after 48 hrs by sulforhodamine B assay; format: functional
[15] = system: SNB-19; assay: Antiproliferative activity against human SNB19 cells assessed as growth inhibition after 48 hrs by sulforhodamine B assay; format: functional; settings: SNB-19, 48 h
[16] = system: SW-620; assay: Antiproliferative activity against human SW620 cells assessed as growth inhibition after 48 hrs by sulforhodamine B assay; format: functional; settings: SW-620, 48 h
[17] = system: KM12; assay: Antiproliferative activity against human KM12 cells assessed as growth inhibition after 48 hrs by sulforhodamine B assay; format: functional; settings: KM12, 48 h
[18] = system: HCC 2998; assay: Antiproliferative activity against human HCC2998 cells assessed as growth inhibition after 48 hrs by sulforhodamine B assay; format: functional; settings: HCC 2998, 48 h
[19] = system: COLO 205; assay: Antiproliferative activity against human COLO205 cells assessed as growth inhibition after 48 hrs by sulforhodamine B assay; format: functional; settings: COLO 205, 48 h
[20] = system: NCI-H522; assay: Antiproliferative activity against human NCI-H522 cells assessed as growth inhibition after 48 hrs by sulforhodamine B assay; format: functional; settings: NCI-H522, 48 h
[21] = system: NCI-H460; assay: Antiproliferative activity against human NCI-H460 cells assessed as growth inhibition after 48 hrs by sulforhodamine B assay; format: functional; settings: NCI-H460, 48 h
[22] = system: NCI-H322M; assay: Antiproliferative activity against human NCI-H322M cells assessed as growth inhibition after 48 hrs by sulforhodamine B assay; format: functional
[23] = system: HOP-62; assay: Antiproliferative activity against human HOP62 cells assessed as growth inhibition after 48 hrs by sulforhodamine B assay; format: functional; settings: HOP-62, 48 h
[24] = system: EKVX; assay: Antiproliferative activity against human EKVX cells assessed as growth inhibition after 48 hrs by sulforhodamine B assay; format: functional
[25] = system: SR; assay: Antiproliferative activity against human SR cells assessed as growth inhibition after 48 hrs by sulforhodamine B assay; format: functional
[26] = system: K562; assay: Antiproliferative activity against human K562 cells assessed as growth inhibition after 48 hrs by sulforhodamine B assay; format: functional, cell-based; settings: K562, 48 h, read-out: IC50
[27] = system: BT-549; assay: Antiproliferative activity against human BT549 cells assessed as growth inhibition after 48 hrs by sulforhodamine B assay; format: functional; settings: BT-549, 48 h
[28] = system: T47D; assay: Antiproliferative activity against human T47D cells assessed as growth inhibition after 48 hrs by sulforhodamine B assay; format: functional
[29] = Haemolytic activity in human erythrocytes assessed as induction of hemolysis at 5 mM after 30 mins relative to H202; format: cell-based, Erythrocyte; settings: read-out: Activity
[30] = (§1) Haemolytic activity in human erythrocytes assessed as induction of hemolysis at 2.5 mM after 30 mins relative to H202; format: cell-based, Erythrocyte; settings: erythrocytes, read-out: Activity
[31] = system: Erythrocyte; assay: Haemolytic activity in human erythrocytes assessed as induction of hemolysis at 0.625 mM after 30 mins relative to H202; format: cell-based; settings: erythrocyte, 0.5 h, 625 µM
[32] = Antioxidant activity assessed as DPPH radical scavenging activity incubated in dark for 30 mins by spectrophotometric method relative to ascorbic acid; format: functional
[33] = Antioxidant activity assessed as ABTS radical scavenging activity by spectrophotometric method relative to ascorbic acid; format: functional
[34] = Antioxidant activity assessed as hydroxyl radical scavenging activity after 1 hr by salicylic acid-based Fenton reaction assay; format: functional
[35] = system: HCT-116; assay: Induction of apoptosis in human HCT116 cells assessed as increase in caspase 3 mRNA expression at 100 nM after 6 hrs hrs by SYBR green dye-based qRT-PCR analysis relative to control; format: functional
[36] = system: HCT-116; assay: […] in CDK1 mRNA expression in human HCT116 cells at 100 nM after 6 hrs hrs by SYBR green dye-based qRT-PCR analysis relative to control; format: functional
[37] = system: HCT-116; assay: Reduction in CDK1 mRNA expression in human HCT116 cells at 100 nM after 6 hrs hrs by SYBR green dye-based qRT-PCR analysis relative to control; format: functional; settings: HCT-116, 6 h
[38] = system: Erythrocyte; assay: as §1; format: cell-based; settings: erythrocyte, 0.5 h, 2500 µM

N=C(N)c1ccc(-c2ccc(-c3cc(Cl)cc(Cl)c3)o2)o1
GI50 [1]: 1740 nM | LC50 [1]: 10700 nM | TGI [1]: 3470 nM | IC50 [2]: 16000 nM | Selectivity Index [3]: 9.2 | GI50 [4]: 1850 nM | GI50 [5]: 1700 nM | GI50 [6]: 1780 nM | GI50 [7]: 1610 nM | GI50 [8]: 1840 nM | GI50 [9]: 1730 nM | GI50 [10]: 1940 nM | GI50 [11]: 2050 nM | GI50 [12]: 1610 nM | GI50 [13]: 1840 nM | GI50 [14]: 1680 nM | GI50 [15]: 1990 nM | GI50 [16]: 1680 nM | GI50 [17]: 1650 nM | GI50 [18]: 1840 nM | GI50 [19]: 1310 nM | GI50 [20]: 1730 nM | GI50 [21]: 1900 nM | GI50 [22]: 1620 nM | GI50 [23]: 1890 nM | GI50 [24]: 1640 nM | GI50 [25]: 630 nM | IC50 [26]: 1300 nM | GI50 [27]: 1970 nM | GI50 [28]: 1720 nM | hemolysis at 0.5 h, 5000 µM [29]: 57.1% | hemolysis at 0.5 h, 2500 µM [30]: 11.1% | Activity [31]: Non-Toxic | fold change (FC) [32]: 0.2 | fold change (FC) [33]: 0.2 | Activity [34]: Active | fold change (FC) [35]: 2.81 | fold change (FC) [36]: 0.54 | inhibition at 0.1 µM [37]: 46%

N=C(N)c1ccc(-c2ccc(-c3cc(Cl)cc(Cl)c3)s2)s1
GI50 [1]: 1940 nM | LC50 [1]: 75800 nM | TGI [1]: 4460 nM | IC50 [2]: 98800 nM | Selectivity Index [3]: 50.9 | GI50 [4]: 1870 nM | GI50 [5]: 1810 nM | GI50 [6]: 1820 nM | GI50 [7]: 1530 nM | GI50 [8]: 2060 nM | GI50 [9]: 1970 nM | GI50 [10]: 1920 nM | GI50 [11]: 2050 nM | GI50 [12]: 1670 nM | GI50 [13]: 1850 nM | GI50 [14]: 1690 nM | GI50 [15]: 2110 nM | GI50 [16]: 1920 nM | GI50 [17]: 1750 nM | GI50 [18]: 1750 nM | GI50 [19]: 1540 nM | GI50 [20]: 1910 nM | GI50 [21]: 2050 nM | GI50 [22]: 1660 nM | GI50 [23]: 1760 nM | GI50 [24]: 1750 nM | GI50 [25]: 1060 nM | IC50 [26]: 1290 nM | GI50 [27]: 4370 nM | GI50 [28]: 1800 nM | hemolysis at 0.5 h, 5000 µM [29]: 6.7% | Activity [38]: Non-Toxic | Activity [31]: Non-Toxic | fold change (FC) [32]: 0.3 | fold change (FC) [33]: 0.4 | Activity [34]: Active | fold change (FC) [35]: 1.61 | fold change (FC) [36]: 0.21 | inhibition at 0.1 µM [37]: 79%
